From ChEMBL document CHEMBL4033742, “Novel 3-fluoro-6-methoxyquinoline derivatives as inhibitors of bacterial DNA gyrase and topoisomerase IV” (Bioorg Med Chem Lett, 2017)
Values after ≈ are worked out from the molar mass of the structure shown.

Tests used:
[1] = Volume of distribution at steady state in mouse at 10 mg/kg, iv; assay type: ADME, organism-based; settings: in vivo, read-out: Vdss
[2] = Inhibition of Staphylococcus aureus DNA gyrase
Streptococcus pyogenes = assay: Antibacterial activity against Streptococcus pyogenes; assay type: functional
[3] = Clearance in mouse at 10 mg/kg, iv; assay type: ADME, organism-based; settings: in vivo
[4] = Volume of distribution at steady state in rat at 2 mg/kg, iv; assay type: ADME, organism-based; settings: in vivo, read-out: Vdss
Staphylococcus aureus [5] = assay: Antibacterial activity against Staphylococcus aureus containing DNA gyrase D83N mutations; assay type: functional
[6] = Clearance in rat at 2 mg/kg, iv; assay type: ADME, organism-based; settings: in vivo
[7] = target: Voltage-gated inwardly rectifying potassium channel KCNH2 (Homo sapiens, UniProt Q12809); assay: Inhibition of human ERG
Staphylococcus aureus [8] = assay: Antibacterial activity against fluoroquinolone-sensitive Staphylococcus aureus 1146; assay type: functional
[9] = Half life in rat at 2 mg/kg, iv; assay type: ADME, organism-based; settings: in vivo
Staphylococcus aureus [10] = assay: Antibacterial activity against fluoroquinolone-resistant Staphylococcus aureus 1095; assay type: functional
[11] = Fraction unbound in human plasma; assay type: ADME, cell-free
Staphylococcus aureus [12] = assay: Antibacterial activity against fluoroquinolone-resistant Staphylococcus aureus infected in mouse neutropenic thigh model assessed as static dose required for bacterial stasis; assay type: functional
[13] = Fraction unbound in rat plasma; assay type: ADME, cell-free
Staphylococcus aureus [14] = assay: Antibacterial activity against Staphylococcus aureus containing DNA gyrase M121K mutations; assay type: functional
[15] = Inhibition of Staphylococcus aureus DNA topoisomerase 4
[16] = Half life in mouse at 10 mg/kg, iv; assay type: ADME, organism-based; settings: in vivo
[17] = Fraction unbound in mouse plasma; assay type: ADME, cell-free
Staphylococcus aureus [18] = assay: Antibacterial activity against Staphylococcus aureus; assay type: functional
[19] = Cmax in human; assay type: ADME
[20] = Ratio of fAUC in fluoroquinolone-resistant Staphylococcus aureus infected mouse neutropenic thigh model to MIC for fluoroquinolone-resistant Staphylococcus aureus

Chain of Voltage-gated inwardly rectifying potassium channel KCNH2 (Q12809 whole entry): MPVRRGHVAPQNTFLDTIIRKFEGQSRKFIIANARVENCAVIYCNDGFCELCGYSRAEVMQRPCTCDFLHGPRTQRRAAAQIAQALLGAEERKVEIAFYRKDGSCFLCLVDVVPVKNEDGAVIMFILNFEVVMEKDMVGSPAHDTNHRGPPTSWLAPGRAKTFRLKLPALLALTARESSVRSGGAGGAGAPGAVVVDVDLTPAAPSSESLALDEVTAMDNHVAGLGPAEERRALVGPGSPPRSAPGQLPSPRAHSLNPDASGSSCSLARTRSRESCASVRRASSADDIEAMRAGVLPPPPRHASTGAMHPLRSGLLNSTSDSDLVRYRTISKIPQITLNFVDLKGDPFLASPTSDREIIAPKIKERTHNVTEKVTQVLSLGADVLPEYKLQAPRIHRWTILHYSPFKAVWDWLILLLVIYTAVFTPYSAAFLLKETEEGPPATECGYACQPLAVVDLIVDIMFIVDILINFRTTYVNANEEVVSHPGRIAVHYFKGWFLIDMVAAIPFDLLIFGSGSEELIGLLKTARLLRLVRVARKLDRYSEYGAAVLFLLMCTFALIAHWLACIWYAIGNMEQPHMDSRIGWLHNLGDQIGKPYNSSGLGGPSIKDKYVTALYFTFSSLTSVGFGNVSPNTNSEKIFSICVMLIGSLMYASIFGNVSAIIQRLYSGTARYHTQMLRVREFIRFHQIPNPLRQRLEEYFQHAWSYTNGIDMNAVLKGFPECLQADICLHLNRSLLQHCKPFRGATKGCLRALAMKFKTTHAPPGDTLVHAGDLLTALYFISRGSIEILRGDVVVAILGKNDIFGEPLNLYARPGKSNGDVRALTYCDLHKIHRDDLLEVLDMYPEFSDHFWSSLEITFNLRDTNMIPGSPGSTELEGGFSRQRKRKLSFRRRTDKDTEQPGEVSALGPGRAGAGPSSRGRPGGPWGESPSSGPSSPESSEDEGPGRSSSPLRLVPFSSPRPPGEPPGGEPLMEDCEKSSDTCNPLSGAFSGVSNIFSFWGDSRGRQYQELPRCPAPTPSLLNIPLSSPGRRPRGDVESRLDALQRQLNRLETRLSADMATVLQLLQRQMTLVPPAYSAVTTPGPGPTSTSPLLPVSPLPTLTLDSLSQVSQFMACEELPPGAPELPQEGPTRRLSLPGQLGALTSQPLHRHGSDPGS

| SMILES | IC50 [2] | MIC90 (Streptococcus pyogenes) | MIC (Staphylococcus aureus [5]) | IC50 [7] | MIC (Staphylococcus aureus [8]) | MIC (Staphylococcus aureus [10]) | MIC (Staphylococcus aureus [14]) | IC50 [15] | MIC90 (Staphylococcus aureus [18]) | further results |
| --- | --- | --- | --- | --- | --- | --- | --- | --- | --- | --- |
| COc1ccc2ncc(F)c([C@@H](O)CC[C@@H]3CCN(C4CC(c5ccccc5)C4)C[C@@H]3C(=O)O)c2c1 (some centres not stated) | 1.15 µM | 1 µg/mL (≈ 2.03 µM) | 22.6 µg/mL (≈ 45.9 µM) | 22.3 µM | 0.069 µg/mL (≈ 0.14 µM) | 0.125 µg/mL (≈ 0.254 µM) | 8 µg/mL (≈ 16.2 µM) | 15.9 µM | 0.25 µg/mL (≈ 0.508 µM) | Vd [1]: 1.01 L/kg; clearance [3]: 17.3 mL/min/kg; Vd [4]: 1.82 L/kg; clearance [6]: 18.4 mL/min/kg; half-life [9]: 68.4 min; fraction unbound [11]: 0.122 to 0.211; Activity (Staphylococcus aureus [12]): 92.1 mg/kg/day; fraction unbound [13]: 0.277 to 0.334; half-life [16]: 40.2 min; fraction unbound [17]: 0.15 to 0.158 |
| COc1ccc2ncc(F)c([C@@H](O)CC[C@@H]3CCN(C4CC(c5cc(F)ccc5F)C4)C[C@@H]3C(=O)O)c2n1 (some centres not stated) | 1.43 µM | 0.5 to 1 µg/mL (≈ 0.944 to 1.89 µM) | 2.5 µg/mL (≈ 4.72 µM) | 45 µM | ≤ 0.0625 µg/mL | 0.088 µg/mL (≈ 0.166 µM) | 2.3 µg/mL (≈ 4.34 µM) | 5.09 µM | 0.125 to 0.25 µg/mL (≈ 0.236 to 0.472 µM) | Vd [1]: 0.825 L/kg; clearance [3]: 34 mL/min/kg; Vd [4]: 1.89 L/kg; clearance [6]: 32.7 mL/min/kg; half-life [9]: 40.2 min; fraction unbound [11]: 0.036 to 0.037; Activity (Staphylococcus aureus [12]): 80.7 mg/kg/day; fraction unbound [13]: 0.121 to 0.189; half-life [16]: 16.8 min; fraction unbound [17]: 0.131 to 0.242 |
| COc1ccc2nccc([C@@H](O)CC[C@@H]3CCN(CCSc4cccs4)C[C@@H]3C(=O)O)c2c1 | 2.42 µM | – | – | – | – | – | – | 84.6 µM | – | – |
| O=c1ccc2ncc(=O)n3c2n1C[C@H]3CN1CCC(NCc2cc3c(cn2)OCCC3)CC1 [GEPOTIDACIN] | – | – | 8 to 32 µg/mL (≈ 17.8 to 71.3 µM) | 1310 µM | – | – | – | – | – | Cmax [19]: 7000 to 13000 ng/mL; Ratio [20]: 13.4 |
| COc1ccc2ncc(F)c([C@@H](O)CC[C@@H]3CCN(C4CC(c5cccs5)C4)C[C@@H]3C(=O)O)c2c1 (some centres not stated) | 0.78 µM | 0.5 µg/mL (≈ 1 µM) | 11.3 µg/mL (≈ 22.7 µM) | – | ≤ 0.0625 µg/mL | 0.125 µg/mL (≈ 0.251 µM) | 16 µg/mL (≈ 32.1 µM) | 9.4 µM | 0.125 µg/mL (≈ 0.251 µM) | – |
| COc1ccc2ncc(F)c([C@@H](O)CC[C@@H]3CCN(C4CC(c5cncc(F)c5)C4)C[C@@H]3C(=O)O)c2c1 (some centres not stated) | 4.7 µM | – | > 64 µg/mL | – | 2 µg/mL (≈ 3.91 µM) | 32 µg/mL (≈ 62.6 µM) | – | > 120 µM | – | – |
| CN[C@H](CC(C)C)C(=O)N[C@H]1C(=O)N[C@@H](CC(N)=O)C(=O)N[C@H]2C(=O)N[C@H]3C(=O)N[C@H](C(=O)N[C@H](C(=O)O)c4cc(O)cc(O)c4-c4cc3ccc4O)[C@H](O)c3ccc(c(Cl)c3)Oc3cc2cc(c3O[C@@H]2O[C@H](CO)[C@@H](O)[C@H](O)[C@H]2O[C@H]2C[C@](C)(N)[C@H](O)[C@H](C)O2)Oc2ccc(cc2Cl)[C@H]1O [VANCOMYCIN] | – | – | – | – | – | – | – | – | – | Activity (Staphylococcus aureus [12]): 29 mg/kg/day |
| COc1ccc2nccc([C@@H](O)CC[C@@H]3CCN(C4CC(c5cc(F)ccc5F)C4)C[C@@H]3C(=O)O)c2c1 (some centres not stated) | 3 µM | – | – | – | – | – | – | 9.62 µM | – | – |
| COc1ccc2ncc(F)c([C@@H](O)CC[C@@H]3CCN(C4CC(c5cccc(F)c5)C4)C[C@@H]3C(=O)O)c2c1 (some centres not stated) | 0.78 µM | 0.5 µg/mL (≈ 0.979 µM) | 16 µg/mL (≈ 31.3 µM) | – | ≤ 0.0625 µg/mL | 0.25 µg/mL (≈ 0.49 µM) | 16 µg/mL (≈ 31.3 µM) | 19 µM | 0.25 µg/mL (≈ 0.49 µM) | – |
| COc1ccc2ncc(F)c(C[C@H](O)[C@@H]3CC[C@@H](NCc4cc5c(nn4)OCCS5)CO3)c2n1 | – | – | – | – | – | – | – | – | – | Ratio [20]: 43 |
| COc1ccc2ncc(F)c([C@@H](O)CC[C@@H]3CCN(C4CC(c5ccno5)C4)C[C@@H]3C(=O)O)c2c1 (some centres not stated) | 2.68 µM | – | > 64 µg/mL | > 300 µM | 0.5 µg/mL (≈ 1.03 µM) | 4 µg/mL (≈ 8.27 µM) | – | 35.1 µM | – | – |
| COc1ccc2nccc([C@@H](O)CC[C@@H]3CCN(C4CC(c5c(F)cccc5F)C4)C[C@@H]3C(=O)O)c2c1 (some centres not stated) | 2.93 µM | – | – | – | – | – | – | 100 to 120 µM | – | – |
